Patent publication US5641805A, “Topical ophthalmic formulations for treating allergic eye diseases” (Alcon Laboratories, Inc., priority 1995, dated 1997)

What was measured:
[1] = tested on: Human Conjunctival Tissue Mast Cells; assay: Compound effect on histamine release from human conjunctival tissue mast cells upon anti-human IgE challenge; assay type: cell-based; details: for inhibition at 500 µM: * p < 0.05 Dunnett's, isomers not significantly different (p > 0.05 Studentized Range), read-out: Inhibition (%) of in-vitro histamine release, isomer comparison; for inhibition of human conjunctival mast cell degranulation: statement on Table 1
Experimental: The inhibitory effects of reported anti-allergic, mast cell stabilizing drugs on mast cells obtained from human conjunctiva (the target cells for topical ophthalmic drug preparations claimed useful in treating allergic conjunctivitis) were tested according to the following experimental method. Human conjunctival tissues obtained from organ/tissue donors were weighed and transferred to petri dishes containing RPMI 1640 culture medium supplemented with heat inactivated fetal bovine serum (20%, v/v), L-glutamine (2 mM), penicillin (100 units/ml), streptomycin (100 μg/ml), amphotericin B (2.5 μg/ml) and HEPES (10 mM) and equilibrated overnight at 37° C. (5% CO2).
Post equilibration, tissues were placed in Tyrode's buffer (in mM: 137 NaCl, 2.7 KCl, 0.35 Na H2 PO4, 1.8 CaCl2, 0.98 MgCl2, 11.9 Na HCO3, 5.5 glucose) containing 0.1% gelatin (TGCM) and incubated with 200 U each of collagenase (Type IV) and hyaluronidase (Type I-S) per gram of tissue for 30 minutes at 37° C. Following enzyme digestion, tissues were washed with an equal volume of TGCM over Nitex® filter cloth (Tetko, Briarcliff Manor, N.Y.). Intact tissues were placed in TGCM for further enzymatic digestions.
The flitrate obtained from each digestion was centrifuged (825 g, 7 minutes) and pelleted cells were resuspended in calcium/magnesium free Tyrode's buffer (TG). Pooled cells from all digestions were centrifuged (825 g, 30 minutes) over a […] Percoll® cushion. Mast cell enriched cell pellets were resuspended and washed in TG buffer. Viability and number of mast cells were determined by vital dye exclusion and toluidine blue 0 staining of the harvested cell suspensions. Mast cell containing preparations were placed in supplemented RPMI 1640 culture medium and allowed to equilibrate at 37° C. prior to challenge with anti-human IgE (goat derived IgG antibody).
Cell suspensions containing 5000 mast cells were added to TGCM containing tubes and challenged with anti-human IgE. The final volume of each reaction tube was 1.0 mL. Tubes were incubated at 37° C. for 15 minutes post challenge. The release reaction was terminated by centrifugation (500 g, 7 minutes). Supernatants were collected and stored (-20° C.) until mediator analyses.
Initially, supernatants were analyzed for histamine content by both the automated fluorimetric method described by Siraganian, "An Automated Continuous Flow System for the Extraction and Fluorometric Analysis of Histamine," Anal. Biochem., Vol. 57, 383-94 (1974), and a commercially available radioimmunoassay (RIA) system (AMAC, Inc., Westbrook, Me.). Results from these assays were positively correlated (r=0.999): therefore, the remainder of histamine analyses were performed by RIA.
Each experiment included an anti-human IgE (plus vehicle) positive release control, a spontaneous/vehicle release and a total histamine release control. Total histamine release was determined by treatment with Triton X-100® (0.1%). The experiments also included a non-specific goat IgG control. Test compounds are administered to the mast cell cultures either 1 or 15 minutes before stimulation with anti-human IgE. Inhibition of histamine release resulting from challenge of drug treated mast cells was determined by direct comparison with histamine release from vehicle treated, anti-IgE challenged mast cells using Dunnett's t-test (Dunnett, "A multiple comparison procedure for comparing treatments with a control, " J. Amer. Stat Assoc., Vol. 50, 1096-1121 (1955)).
Dunnett's t-test, is a statistical test which compares multiple treatment groups with one control group. In the assay described above, histamine released from drug treated mast cells are compared to histamine released from the anti-human IgE plus vehicle treated mast cells which serve as the positive control. Statistically significant inhibition is determined using this procedure. The probability level of 0.05 is accepted as the level of significance in biomedical research. […]

rat conjunctiva = details: 0.1 % strength
Excerpt: This assay indicates whether a topically applied compound effectively prevents or decreases the local allergic response in the conjunctiva. This assay allows an assessment of bioavailability following topical dosing. Briefly, male Sprague Dawley rats (6/group) were passively sensitized by subconjunctival injection of a rat serum containing IgE specific for ovalbumin (OA). Twenty-four hours post sensitization, test compound prepared in saline (0.9% NaCl) or saline vehicle was applied topically onto the sensitized eye. Twenty (20) minutes after dosing, rats were challenged intravenously via the lateral tail vein with 1.0 ml of a solution containing OA (1.0 mg/ml) and Evans Blue dye (2.5 mg/ml). Thirty (30) minutes post antigen challenge, animals were killed, skin was reflected, and the size of the resulting wheal and the intensity of the extravasated dye were determined.

[2] = tested on: mast cells obtained from bronchoalveolar lavage fluid; details: 100 μM; cited from earlier work
human skin mast cells = details: cited from earlier work
rodent mast cell = details: cited from earlier work
[3] = Homo sapiens, Mast cell, 0.25 h, treatment 15 min
[4] = Homo sapiens, Mast cell, 0.25 h, treatment 15 min, * p < 0.05 Dunnett's t-test
[5] = Homo sapiens, Mast cell, 1 min, treatment 1 min

Q: With `CN(C)CC/C=C1/c2ccccc2COc2ccc(CC(=O)O)cc21` [Compound A (cis), Z-11-(3-dimethylaminopropylidene)-6,11-dihydrodibenz[b,e]oxepin-2-acetic acid] as the molecule, how does the inhibition at 500 µM [1, 3] read?
A: 29.7%

Q: What about the “inhibition of human conjunctival mast cell degranulation” value [1] of the same molecule?
A: concentration-dependent inhibition of mast cell degranulation

Q: With `CN(C)CC/C=C1\c2ccccc2COc2ccc(CC(=O)O)cc21` [Compound A (trans), E-11-(3-dimethylaminopropylidene)-6,11-dihydrodibenz[b,e]oxepin-2-acetic acid] as the molecule, how does the inhibition at 500 µM [1, 3] read?
A: 26.2%

Q: Which inhibition at 30 µM [1, 3] does the source give for `CN(C)CC/C=C1/c2ccccc2COc2ccc(CC(=O)O)cc21` [Compound A, 11-(3-dimethylaminopropylidene)-6,11-dihydrodibenz[b,e]oxepin-2-acetic acid] here?
A: -3.9%

Q: What about the inhibition at 100 µM [1, 4] of the same molecule?
A: 13%

Q: And the inhibition at 300 µM [1, 4]?
A: 29.6%

Q: What about the inhibition at 600 µM ([1]; Homo sapiens, Mast cell, 0.25 h, 600 μM, treatment 15 min, * p < 0.05 Dunnett's t-test) of the same molecule?
A: 47.5%

Q: And the inhibition at 1000 µM [1, 4]?
A: 66.7%

Q: What about the inhibition at 2000 µM ([1]; Mast cell, 2000 μM, treatment 15 min before anti-human IgE, * p < 0.05 Dunnett's t-test) of the same molecule?
A: 92.6%

Q: For `CN(C)CC/C=C1/c2ccccc2COc2ccc(C(=O)O)cc21` [Compound B, (Z)11-(3-Dimethylaminopropylidene)-6,11-dihydrodibenz[b,e]oxepin2-carboxylic acid], which “% Change (permeability score)” value (rat conjunctiva) is on record?
A: -55%

Q: With `CN(C)CCC=C1c2ccccc2COc2ccc(/C=C\C(=O)O)cc21` [Compound C, (Z)11-(3-Dimethylaminopropylidene)-6,11-dihydrodibenz[b,e]oxepin2-acrylic acid] as the molecule, how does the “% Change (permeability score)” value (rat conjunctiva) read?
A: -53%

Q: Which inhibition at 10 µM [1, 5] does the source give for `O=C(O)c1cc(=O)c2c(OCC(O)COc3cccc4oc(C(=O)O)cc(=O)c34)cccc2o1` [Cromolyn sodium] here?
A: -0.9%

Q: What about the inhibition at 30 µM [1, 5] of the same molecule?
A: 0.1%

Q: And the inhibition at 100 µM [1, 5]?
A: 1.2%

Q: And the inhibition at 300 µM [1, 5]?
A: -1.8%

Q: What about the inhibition at 1000 µM [1, 5] of the same molecule?
A: -9.4%

Q: What about the inhibition at 10 µM [1, 3] of the same molecule?
A: 10.6%

Q: What about the inhibition at 30 µM [1, 3] of the same molecule?
A: 1.8%

Q: What about the inhibition at 100 µM [1, 4] of the same molecule?
A: -1.2%

Q: And the inhibition at 300 µM [1, 4]?
A: -6.9%

Q: What about the inhibition at 1000 µM [1, 4] of the same molecule?
A: -15.4%

Q: What about the “inhibition of human conjunctival mast cell degranulation” value [1] of the same molecule?
A: failed to significantly inhibit human conjunctival mast cell degranulation

Q: What about the “inhibition of mast cells from bronchoalveolar lavage fluid” value [2] of the same molecule?
A: inhibited

Q: And the “inhibition of histamine release from human skin mast cells” value (human skin mast cells)?
A: not inhibited at all

Q: And the “inhibition of rodent mast cell degranulation” value (rodent mast cell)?
A: inhibit rodent mast cell degranulation

Q: What does the source list for `CCCc1c2oc(C(=O)O)cc(=O)c2cc2c(=O)cc(C(=O)O)n(CC)c12` [Nedocromil sodium]?
A: inhibition at 0.1 µM [1, 5]: 17.4%; inhibition at 0.3 µM [1, 5]: 8.8%; inhibition at 1 µM [1, 5]: 4.8%; inhibition at 3 µM [1, 5]: 0.8%; inhibition at 10 µM [1, 5]: -6.5%; inhibition at 30 µM [1, 5]: -0.9%; inhibition at 100 µM [1, 5]: 6.7%; inhibition at 300 µM [1, 5]: 4%; inhibition at 1000 µM [1, 5]: -1.1%; inhibition at 0.1 µM [1, 3]: 8.7%; inhibition at 0.3 µM [1, 3]: 3.7%; inhibition at 1 µM [1, 3]: 10.7%; inhibition at 3 µM [1, 3]: 13.2%; inhibition at 10 µM [1, 3]: 9.2%; inhibition at 30 µM [1, 3]: 15.2%; inhibition at 100 µM [1, 4]: 28.2%; inhibition at 300 µM [1, 4]: 11.3%; inhibition at 1000 µM [1, 4]: 7.2%; inhibition of human conjunctival mast cell degranulation [1]: failed to significantly inhibit human conjunctival mast cell degranulation
